{"source": "patent US10442767B2", "about": "(priority 2012, dated 2019)", "key": {"C57Bl/6J mice": {"system": "C57Bl/6J mice", "experiment": "In vivo effects (tremor, seizures) after intraperitoneal injection", "design": "species or system mouse", "settings": "i.p.; for Effect: N = 5", "procedure": "A consequence of excessive K^+ channel blockage is the advent of seizures. 4-AP is known to cause seizures in mice at high doses.\nAt high doses, 4-AP causes tremors, muscle spasms and seizures.\n10-week-old female C57Bl/6J mice were given an intraperitoneal injection of the drug under investigation and monitored continuously for 4 h. After 4 h no signs of drug effects could be observed. At least 72 h passed between injections to the same mice."}, "Shaker K^+ channel": {"target": "T1, Shaker K^+ channel (Drosophila melanogaster, UniProt P08510)", "T1 construct": "injecting approximately 50 ng of WT Shaker cRNA (kit Ambion) into the oocytes; expressed in transfected cells; host or cells: Xenopus laevis oocytes (cRNA injection)", "T1 sequence (P08510 whole entry)": "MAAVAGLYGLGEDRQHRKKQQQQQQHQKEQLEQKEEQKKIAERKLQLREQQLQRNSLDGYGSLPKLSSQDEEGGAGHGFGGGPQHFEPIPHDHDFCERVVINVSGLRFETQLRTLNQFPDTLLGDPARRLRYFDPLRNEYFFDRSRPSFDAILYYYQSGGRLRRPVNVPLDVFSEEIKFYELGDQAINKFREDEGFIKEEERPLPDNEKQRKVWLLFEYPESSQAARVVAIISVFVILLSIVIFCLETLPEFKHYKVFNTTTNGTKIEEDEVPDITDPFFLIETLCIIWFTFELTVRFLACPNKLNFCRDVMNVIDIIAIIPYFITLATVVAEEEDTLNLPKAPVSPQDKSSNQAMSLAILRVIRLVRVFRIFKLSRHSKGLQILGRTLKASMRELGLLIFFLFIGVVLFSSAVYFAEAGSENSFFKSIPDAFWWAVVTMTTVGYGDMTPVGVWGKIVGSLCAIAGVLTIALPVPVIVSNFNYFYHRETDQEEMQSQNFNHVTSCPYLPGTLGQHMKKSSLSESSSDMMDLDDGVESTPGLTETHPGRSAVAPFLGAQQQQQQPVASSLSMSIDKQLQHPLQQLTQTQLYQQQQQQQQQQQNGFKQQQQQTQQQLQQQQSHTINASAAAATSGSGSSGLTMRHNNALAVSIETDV", "experiment": "Inhibition of K+ currents, cut-open oocyte voltage clamp", "type": "cell-based, Xenopus oocytes", "procedure": "Using the cut-open oocyte voltage clamp studies to screen compounds to determine their potency towards Kv1 cannels was previously described in Starace and Bezanilla et al. (2004).\nFor this experiment, Shaker K^+ channel from D. […] was chosen as the archetypical voltage gated K^+ channel that gives name to the family.\nElectrophysiology studies are conducted according to the protocol by Stefani and Bezanilla (1998). Briefly, K^+ channel Shaker cRNA is injected into Xenopus oocytes 24 h after their surgical extraction from adult frogs. 1-5 days after injection channel currents are recorded using the cut-open voltage-clamp.\nK^+ channel expression in Xenopus oocytes membranes was achieved by injecting approximately 50 ng of WT Shaker cRNA (kit Ambion) into the oocytes 24 h after surgical extraction from adult frogs and collagenase treatment. Injected oocytes were maintained in a standard oocytes solution (100 mM NaCl, 5 mM KCl, 2 mM CaCl2, and 10 mM Hepes at pH 7.5) at 16.5° C. and recordings were performed 1-3 days after injection.\nK^+ currents were recorded from oocytes expressing Shaker K^+ channels using the cut-open voltage clamp technique as described by Stefani and Bezanilla. The internal solution was 120 mM KOH, 20 mM HEPES-methyl sulfonate (MES) pH 7.4, 2 mM EGTA. The external solution was 12 mM KOH, 105 mM N-methyl-D-glucamine-MES pH 7.4, 20 mM HEPES, 2 mM CaOH. […] After application, cells were voltage-clamped at least 5 min at 0 mV, then voltage-clamped at −80 mV for 1-2 min. K^+ currents were generated by applying series of 50 ms pulses from −70 mV to +40 mV in increments of 10 mV. […] Analysis of the traces was done using an in-house software. The half-maximal inhibitory concentration (IC50) for each drug was calculated by plotting the relative K^+ current vs. concentration and fitted to the Hill equation using the software Origin.\n(§1) EC50=10^<log EC50>; where <log EC50>=average of log EC50 values from all experiments with the same drug. 95% C.I.=[Upper Limit . . . Lower Limit]; where U.L.=10^(log EC50+s.d.) and L.L.=10^(log EC50−s.d.). The half-life (t1/2) in the stability and pharmacokinetic experiments was calculated by fitting the data to the equation Ct=C0*exp(−k*t) where C0=initial concentration, Ct=concentration at time t, and k=ln 2/t1/2. Student t-test was used to compare results and P<0.05 was considered significant."}, "[1]": {"experiment": "Pharmacokinetic study after single intravenous dose", "type": "in vivo, mice (CD-1)", "settings": "female, CD-1, mouse, mice, i.v. 0.75 mg/kg", "procedure": "39 mice (CD-1, 6-weeks old, female) were used in the study. […] The drugs were dissolved in PBS and administered via tail-vein injection to achieve a dose of 0.75 mg/kg of body weight. At specific times post injection (10 min, 30 min, 1 h, 2 h, 4 h and 24 h) blood and brain samples were collected. Blood samples were transferred into tubes containing 5% EDTA, stored on ice, and centrifuged (4° C., 1000 rpm, 15 min). Plasma (upper phase) was transferred to a new tube and stored at −80° C. for further analysis. Brain tissue samples were collected after intracardial perfusion of the mouse. Brain tissue samples were stored at −80° C. for further analysis. Drug quantification in plasma: Briefly, to a 1.5 mL Eppendorf tube containing 50 μl of plasma, 200 μl of ice-cold acetonitrile containing 1,000 ng/ml Progesterone (used as internal standard) was added in order to precipitate the proteins. The sample was vortexed, mixed and centrifuged at 4000×g for 10 min at 4° C. to remove precipitates. 140 μl supernatant was collected and transferred to a 500 μl 96-well polypropylene plate and covered using silicone plate mat. 40 μl of sample was injected in into LC-MS. Using the same sample preparation procedure 11 standard solutions ranging from 50 ng/mL to 100 μg/mL were prepared, analyzed by LC-MS and used as a calibration curve to correlate peak area of the samples to concentration. Drug quantification in brain: the mouse brain was weighted and 1 mL of water per 400 mg of tissue was added. The sample was homogenized using an electric tissue homogenizer. To a 1.5 mL Eppendorf tube containing 50 μl of homogenized sample, 200 μl of ice-cold acetonitrile containing 1000 ng/ml Demeclocycline (used as internal standard) was added in order to precipitate the proteins. The sample was vortexed, mixed and centrifuged at 4000×g for 10 min at 4° C. to remove precipitates. 140 μl supernatant was collected and transferred to a 500 μl 96-well polypropylene plate and covered using silicone plate mat. 40 μl of each sample was injected into LC-MS. Using the same sample preparation procedure 11 standard solutions ranging from 50 ng/mL to 100 μg/mL were prepared, analyzed by LC-MS and used as a calibration curve to correlate peak area of the samples to concentration.\nas §1, with “The Hill equation used to fit the data from the voltage-clamp and the optic nerve experiments was as follows: y=y0+(yf−y0)*x^n/(k^n+x^n); where n refers to the Hill coefficient (typically 1±0.1) and k refers to EC50 or IC50. y0 and yf refers to the origin and final ordinate values and were fixed at 1±0.1 or 0±0.1 depending on the experiment. EC50=10^<log” for “EC50=10^<log”"}}, "note": "Where two headings read alike, the source gives them in different places."}
{"compound": "Nc1ccncc1F", "note": "[3-F-4-AP, 3-fluoro-4-aminopyridine]", "values": [{"measurement": "Effect", "setting": "C57Bl/6J mice; 30 μmol/kg", "result": "Mouse quiet"}, {"measurement": "Effect", "setting": "C57Bl/6J mice; 60 μmol/kg", "result": "Mild tremor, mouse quiet"}, {"measurement": "duration of effect (tremors, seizures or jerks)", "setting": "C57Bl/6J mice; 90 μmol/kg", "result": "~30", "unit": "min"}, {"measurement": "mice died of seizure", "setting": "C57Bl/6J mice; 90 μmol/kg", "result": "1 of 5 mice died of seizure"}, {"measurement": "start of tremors and seizures post-injection", "setting": "C57Bl/6J mice; 90 μmol/kg (highest dose)", "result": 10, "unit": "s"}, {"measurement": "Effect", "setting": "C57Bl/6J mice; 90 μmol/kg", "result": "Severe tremors and seizures that start"}, {"measurement": "in vivo potency compared with 4-AP", "setting": "C57Bl/6J mice; mice", "result": "very similar potency to that of 4-AP"}, {"measurement": "affinity for K^+ channels compared with 4-AP", "setting": "Shaker K^+ channel; cut-open oocyte voltage clamp (Example 2)", "result": "very similar affinity to 4-AP"}, {"measurement": "IC50", "setting": "Shaker K^+ channel; relative K+ current at +20 mV, Xenopus oocytes, Hill fit, read-out: half-maximal inhibitory concentration (IC50)", "result": 250, "unit": "µM"}, {"measurement": "Kp", "setting": "[1]; brain and plasma, read-out: Cbrain/Cplasma (maximum in the brain over maximum in plasma)", "result": "0.214 ± 0.17"}, {"measurement": "half-life", "setting": "[1]; brain, read-out: half-life in brain (converted)", "result": 85.8, "unit": "min"}, {"measurement": "half-life", "setting": "[1]; plasma, read-out: half-life in plasma (converted)", "result": 20.4, "unit": "min"}]}
